From paper PMC4980666, “N-acylhydrazone inhibitors of influenza virus PA endonuclease with versatile metal binding modes” (Scientific Reports, 2016)

Experiments:
[1] = test system: influenza virus endonuclease; settings: read-out: IC50 in enzymatic assays; cited from earlier work
[2] = biological target: influenza virus vRNPs reconstituted in HEK293T cells (Influenza A virus, UniProt P03433); assay: vRNP reconstitution assay in HEK293T cells; format: cell-based; settings: for EC50: read-out: vRNP reconstitution assay Activity EC50; for selectivity index (ratio of CC50 to EC50): vRNP assay, HEK293T
in vitro [3] = settings: human, vRNP reconstitution assay Cytotoxicity CC50
in vitro [4] = settings: dog
[5] = test system: influenza A virus (strain A/PR/8/34); assay: microbe, parasite or virus in culture; format: cell-based; settings: MDCK cells; for EC90 / EC99: Influenza A virus, PR/8, 24 h, qPCR; for EC90: 1-log10 reduction in virus titer, read-out: Virus yield assay Antiviral activity EC90; for EC99: 2-log10 reduction in virus titer, read-out: Virus yield assay Antiviral activity EC99
[6] = test system: untransfected HEK293T cells; settings: human, 24 h, 200 μM

| SMILES | IC50 [1] | EC50 [2] | CC50 at 24 h (in vitro [3]) | selectivity index (ratio of CC50 to EC50) [2] | CC50 at 24 h (in vitro [4]) | EC90 [5] | EC99 [5] | SI (selectivity index, ratio between CC50 and EC90) [5] | difference between EC50 in the vRNP assay and EC90 in the virus yield assay [2] | cytotoxicity in the vRNP assay [6] |
| --- | --- | --- | --- | --- | --- | --- | --- | --- | --- | --- |
| O=c1[nH]c(-c2ccc(-c3nnn[nH]3)cc2)ncc1O [2-(4-(1H-tetrazol-5-yl)phenyl)-5-hydroxypyrimidin-4(3H)-one] | 0.15 µM | – | – | – | – | – | – | – | – | – |
| NC(=O)N/N=C/c1cccc(O)c1O [Compound 1, N’-(2,3-dihydroxybenzylidene)-semicarbazide] | – | 107 µM | > 200 µM | – | – | – | – | – | – | – |
| COc1cccc(/C=N/NC(N)=O)c1O [Compound 2] | – | > 100 µM | > 200 µM | – | – | – | – | – | – | – |
| CCCCCCCC(=O)N/N=C/c1cccc(O)c1O [Compound 3] | – | 5.9 µM | < 50 µM | below 8 | > 200 µM | – | – | – | – | – |
| CCCCCCCC(=O)N/N=C/c1cccc(OC)c1O [Compound 4] | – | 6.3 µM | < 50 µM | below 8 | > 200 µM | – | – | – | – | – |
| O=C(N/N=C/c1cccc(O)c1O)c1ccccc1 [Compound 5] | – | 2.6 µM | – | below 8 | ≥ 146 µM | > 25 µM | > 25 µM | – | – | – |
| COc1cccc(/C=N/NC(=O)c2ccccc2)c1O [Compound 6] | – | 15 µM | – | below 8 | > 200 µM | > 50 µM | > 50 µM | – | – | – |
| O=C(N/N=C/c1cccc(O)c1O)c1ccccc1O [Compound 7] | – | 3.2 µM | – | below 8 | > 200 µM | 100 µM | 172 µM | >2.0 | ≥ 8 fold | – |
| COc1cccc(/C=N/NC(=O)c2ccccc2O)c1O [Compound 8] | – | 1.9 µM | – | below 8 | > 200 µM | > 12.5 µM | > 12.5 µM | – | – | – |
| O=C(N/N=C/c1cc(O)c(O)cc1O)c1ccccc1O [Compound 9] | – | 5.5 µM | > 200 µM | – | > 200 µM | 5.3 µM | 16 µM | >38 | – | – |
| O=C(N/N=C/c1c(O)cc(O)cc1O)c1ccccc1O [Compound 10] | – | 0.4 µM | 132 µM | – | 111 µM | 8.5 µM | 14 µM | – | ≥ 8 fold | – |
| O=C(N/N=C/c1cc(O)c(O)c(O)c1)c1ccccc1O [Compound 11] | – | 5.6 µM | > 200 µM | – | > 200 µM | 12 µM | 30 µM | >17 | – | – |
| COc1cc(C(=O)N/N=C/c2cc(O)ccc2O)cc(OC)c1OC [Compound 12] | – | 20 µM | 39 µM | – | > 200 µM | > 12.5 µM | > 12.5 µM | – | – | – |
| O=C(N/N=C/c1ccccc1)c1cc(O)c(O)c(O)c1 [Compound 13] | – | 6.3 µM | > 200 µM | – | > 200 µM | 34 µM | 71 µM | >5.9 | – | – |
| O=C(N/N=C/c1ccccc1O)c1cc(O)c(O)c(O)c1 [Compound 14] | – | 2.3 µM | > 200 µM | – | > 200 µM | 37 µM | 63 µM | >5.4 | ≥ 8 fold | – |
| O=C(N/N=C/c1cc(O)ccc1O)c1cc(O)c(O)c(O)c1 [Compound 15] | – | 14 µM | > 200 µM | – | ≥ 172 µM | 7.5 µM | 18 µM | ≥23 | – | – |

| SMILES | IC50 [1] | EC50 [2] | CC50 at 24 h (in vitro [3]) | selectivity index (ratio of CC50 to EC50) [2] | CC50 at 24 h (in vitro [4]) | EC90 [5] | EC99 [5] | SI (selectivity index, ratio between CC50 and EC90) [5] | difference between EC50 in the vRNP assay and EC90 in the virus yield assay [2] | cytotoxicity in the vRNP assay [6] |
| --- | --- | --- | --- | --- | --- | --- | --- | --- | --- | --- |
| COc1ccc(O)c(/C=N/NC(=O)c2cc(O)c(O)c(O)c2)c1 [Compound 16] | – | 5.2 µM | > 200 µM | – | > 200 µM | 28 µM | 67 µM | >7.1 | – | – |
| O=C(N/N=C/c1ccc(O)cc1O)c1cc(O)c(O)c(O)c1 [Compound 17] | – | 7.1 µM | > 200 µM | – | > 200 µM | 8.1 µM | 21 µM | >25 | – | – |
| O=C(N/N=C/c1cccc(O)c1O)c1cc(O)c(O)c(O)c1 [Compound 18] | – | 3.3 µM | > 200 µM | – | > 200 µM | 2.2 µM | 6.2 µM | >91 | – | not cytotoxic at 200 μM |
| COc1cccc(/C=N/NC(=O)c2cc(O)c(O)c(O)c2)c1O [Compound 19] | – | 5.7 µM | > 200 µM | – | > 200 µM | 26 µM | 53 µM | >7.7 | – | not cytotoxic at 200 μM |
| O=C(N/N=C/c1ccc(O)c(O)c1O)c1cc(O)c(O)c(O)c1 [Compound 20] | – | 2.2 µM | > 200 µM | – | > 200 µM | 11 µM | 35 µM | >18 | – | – |
| O=C(N/N=C/c1cc(O)c(O)cc1O)c1cc(O)c(O)c(O)c1 [Compound 21] | – | 2.5 µM | > 200 µM | – | > 200 µM | 3.6 µM | 8.3 µM | >56 | – | – |
| O=C(N/N=C/c1c(O)cc(O)cc1O)c1cc(O)c(O)c(O)c1 [Compound 22] | – | 0.42 µM | > 200 µM | – | > 200 µM | 3.4 µM | 7.4 µM | >59 | ≥ 8 fold | – |
| O=C(N/N=C/c1cc(O)c(O)c(O)c1)c1cc(O)c(O)c(O)c1 [Compound 23] | – | 3.1 µM | > 200 µM | – | > 200 µM | 3.5 µM | 11 µM | >57 | – | – |
| O=C(N/N=C/c1ccccn1)c1cc(O)c(O)c(O)c1 [Compound 24] | – | 25 µM | > 200 µM | – | > 200 µM | 26 µM | 58 µM | >7.7 | – | – |
| O=C(N/N=C/c1ccc[nH]1)c1cc(O)c(O)c(O)c1 [Compound 25] | – | 4.1 µM | > 200 µM | – | > 200 µM | 70 µM | 132 µM | >2.9 | ≥ 8 fold | – |
| O=C(O)c1ccc(-c2cccc(/C=N/NC(=O)c3cc(O)c(O)c(O)c3)c2)cc1 [Compound 26] | – | 5.5 µM | > 200 µM | – | > 200 µM | 13 µM | 36 µM | >15 | – | – |
| NC(=O)N/N=C/c1cc(O)c(O)c(O)c1 [Compound 27] | – | 21 µM | > 200 µM | – | – | – | – | – | – | – |
| NNC(=O)c1cc(O)c(O)c(O)c1 [Compound 28, 3,4,5-trihydroxybenzohydrazide] | – | 7.2 µM | > 200 µM | – | > 200 µM | 85 µM | 158 µM | >2.4 | ≥ 8 fold | – |
| O=C(O[C@@H]1Cc2c(O)cc(O)cc2O[C@@H]1c1cc(O)c(O)c(O)c1)c1cc(O)c(O)c(O)c1 [EGCG, epigallocatechin-3-gallate] | 1.9 µM | – | – | – | – | – | – | – | – | – |
| CC(C)/C=C1\N=C(CC(C)C)C(=O)N(O)C1=O [Flutimide] | 5.5 µM | – | – | – | – | – | – | – | – | – |
